{"source": "paper PMC4641600", "about": "“Novel Activities of Select NSAID R-Enantiomers against Rac1 and Cdc42 GTPases” (PLoS ONE, 2015)", "key": {"[1]": {"system": "migration Rac1/Cdc42 dependent", "experiment": "Migration IC50 (Table F)", "type": "cell-based", "details": "ketorolac, calculated by GraphPad Prism5; read-out: IC50 migration Rac1/Cdc42 dependent (est)"}, "[2]": {"molecular_target": "T1, Cdc42 (Mus musculus, UniProt P60766)", "T1 construct": "endogenous in cells; host or cells: Swiss 3T3", "T1 sequence (P60766 whole entry)": "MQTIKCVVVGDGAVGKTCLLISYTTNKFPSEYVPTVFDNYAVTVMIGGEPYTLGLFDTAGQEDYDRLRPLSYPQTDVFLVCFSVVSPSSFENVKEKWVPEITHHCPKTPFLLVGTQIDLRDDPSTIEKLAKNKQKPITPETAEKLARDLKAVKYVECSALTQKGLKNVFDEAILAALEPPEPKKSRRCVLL", "experiment": "GLISA, Swiss 3T3 cells", "type": "cell-based"}, "[3]": {"details": "IV dose of 30 mg; cited from earlier work"}, "[4]": {"system": "Rac1", "details": "cited from earlier work"}, "[5]": {"system": "OvCa429 and OvCa433 cells", "experiment": "Boyden chamber cell migration assay", "type": "cell-based, human", "details": "estimated from limited dose response data; read-out: IC50 migration Rac1/Cdc42 dependent (est)"}, "[6]": {"molecular_target": "T2, human COX-1 (Homo sapiens, UniProt P23219)", "T2 construct": "purchased CEREP Laboratories (contract assay); host or cells: Sf-9", "T2 sequence (P23219 24-599)": "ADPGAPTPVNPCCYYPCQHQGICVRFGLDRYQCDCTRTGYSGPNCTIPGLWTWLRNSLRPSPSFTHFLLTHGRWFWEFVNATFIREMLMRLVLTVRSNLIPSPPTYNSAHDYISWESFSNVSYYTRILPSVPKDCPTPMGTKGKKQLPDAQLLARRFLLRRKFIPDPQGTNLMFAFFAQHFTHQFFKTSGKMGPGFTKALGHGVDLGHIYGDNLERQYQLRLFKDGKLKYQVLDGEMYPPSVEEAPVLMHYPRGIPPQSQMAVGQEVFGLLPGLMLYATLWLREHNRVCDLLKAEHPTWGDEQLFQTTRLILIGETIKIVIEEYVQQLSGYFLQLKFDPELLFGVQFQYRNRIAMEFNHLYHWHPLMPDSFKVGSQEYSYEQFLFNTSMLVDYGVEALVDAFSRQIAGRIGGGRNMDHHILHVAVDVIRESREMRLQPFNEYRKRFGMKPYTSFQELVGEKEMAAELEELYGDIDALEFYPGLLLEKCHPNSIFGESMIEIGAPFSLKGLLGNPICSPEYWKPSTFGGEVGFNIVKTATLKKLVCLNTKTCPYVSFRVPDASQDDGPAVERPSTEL", "experiment": "Cyclooxygenase assay (CEREP), PGE2 formation", "type": "biochemical", "details": "for IC50: recombinant enzyme, 4 μM arachidonic acid"}, "[7]": {"molecular_target": "T3, Cdc42 (Homo sapiens, UniProt P60953)", "T3 construct": "endogenous in cells; host or cells: HeLa", "T3 sequence (P60953 whole entry)": "as the sequence (P60766 whole entry) above", "experiment": "G-trap flow cytometric effector binding assay, HeLa cells", "type": "cell-based", "details": "ketorolac enantiomers, EGF stimulation, read-out: EC50 against Cdc42"}, "[8]": {"system": "COX-2", "set-up": "method as in ref 15 (a number printed in a supplementary file, which may have a reference list of its own: not looked up in the article's list)", "details": "ovine seminal vesicles or human whole blood; cited from earlier work"}, "[9]": {"molecular_target": "T4, Rac1 (Homo sapiens, UniProt P63000)", "T4 construct": "endogenous in cells; host or cells: HeLa", "experiment": "G-trap flow cytometric effector binding assay, HeLa cells", "type": "cell-based", "details": "ketorolac enantiomers"}, "[10]": {"molecular_target": "T5, Rac1 (Mus musculus, UniProt P63001)", "T5 construct": "endogenous in cells; host or cells: Swiss 3T3", "experiment": "GLISA, Swiss 3T3 cells", "type": "cell-based"}, "[11]": {"system": "purified ovine COX-1", "set-up": "method as in ref 14 (a number printed in a supplementary file, which may have a reference list of its own: not looked up in the article's list)", "details": "purified ovine enzyme; cited from earlier work"}, "[12]": {"system": "purified ovine COX-2", "set-up": "method as in ref 14 (a number printed in a supplementary file, which may have a reference list of its own: not looked up in the article's list)", "details": "purified ovine enzyme; cited from earlier work"}, "[13]": {"molecular_target": "T6, human COX-2 (Homo sapiens, UniProt P35354)", "T6 construct": "purchased CEREP Laboratories (contract assay); host or cells: Sf-9", "T6 sequence (P35354 18-604)": "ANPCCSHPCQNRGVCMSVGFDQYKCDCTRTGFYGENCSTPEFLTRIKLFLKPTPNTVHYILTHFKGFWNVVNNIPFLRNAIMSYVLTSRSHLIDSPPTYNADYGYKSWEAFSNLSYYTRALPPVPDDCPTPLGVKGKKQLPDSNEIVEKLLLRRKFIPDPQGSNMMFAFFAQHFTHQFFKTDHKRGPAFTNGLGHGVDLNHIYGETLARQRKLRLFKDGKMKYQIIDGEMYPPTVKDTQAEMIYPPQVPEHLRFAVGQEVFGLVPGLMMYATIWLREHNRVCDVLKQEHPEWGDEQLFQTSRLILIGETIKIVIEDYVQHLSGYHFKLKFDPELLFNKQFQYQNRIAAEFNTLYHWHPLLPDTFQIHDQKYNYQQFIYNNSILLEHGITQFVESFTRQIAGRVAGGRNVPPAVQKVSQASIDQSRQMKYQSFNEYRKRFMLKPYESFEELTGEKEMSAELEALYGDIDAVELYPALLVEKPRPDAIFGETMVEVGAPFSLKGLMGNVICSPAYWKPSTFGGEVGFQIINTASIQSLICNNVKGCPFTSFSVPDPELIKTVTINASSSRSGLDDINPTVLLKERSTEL", "experiment": "Cyclooxygenase assay (CEREP), PGE2 formation", "type": "biochemical", "details": "recombinant enzyme, 4 μM arachidonic acid"}}, "data": [{"molecule": "O=C(c1ccccc1)c1ccc2n1CCC2C(=O)O", "note": "(racemic) [racemic ketorolac, ketorolac]", "values": [{"measurement": "IC50", "setting": "[1]", "result": 34, "unit": "µM"}, {"measurement": "effect on Cdc42 relative to R-ketorolac", "setting": "[2]; at 10 μM", "result": "approximately half the effect"}, {"measurement": "Cmax", "setting": "[3]", "result": 13.7, "unit": "µM"}]}, {"molecule": "CCN(CC)CCCC(C)Nc1nc(C)cc(Nc2ccc3nc(C)cc(N)c3c2)n1", "note": "(centres unmarked) [NSC23766]", "values": [{"measurement": "IC50", "setting": "[4]", "result": "[…]"}, {"measurement": "IC50", "setting": "[5]", "result": "< 30", "unit": "µM"}]}, {"molecule": "O=C(c1ccccc1)c1ccc2n1CC[C@H]2C(=O)O", "note": "[R-ketorolac]", "values": [{"measurement": "IC50", "setting": "[6]", "result": 0.99, "unit": "µM"}, {"measurement": "IC50", "setting": "[1]", "result": 7, "unit": "µM"}, {"measurement": "EC50", "setting": "[7]", "result": 1.07, "unit": "µM"}, {"measurement": "COX-2 IC50 Previously Published", "setting": "[8]", "result": "Not sig"}, {"measurement": "EC50", "setting": "[9]; EGF stimulation, read-out: EC50 against Rac1", "result": 0.574, "unit": "µM"}, {"measurement": "dose of maximal inhibitory activity against Rac1", "setting": "[10]; 1 h preincubation, EGF stimulation", "result": 50, "unit": "µM"}, {"measurement": "dose of maximal inhibition of Cdc42 activation", "setting": "[2]; 1 h pretreatment, EGF stimulation", "result": 10, "unit": "µM"}, {"measurement": "COX-1 IC50 Previously Published", "setting": "[11]", "result": "Not sig"}, {"measurement": "COX-2 IC50 Previously Published", "setting": "[12]", "result": "Not sig"}, {"measurement": "IC50", "setting": "[13]", "result": "> 100", "unit": "µM"}]}, {"molecule": "O=C(c1ccccc1)c1ccc2n1CC[C@@H]2C(=O)O", "note": "[S-ketorolac]", "values": [{"measurement": "eudismic ratio (EC50/EC50)", "setting": "[6]; for cyclooxygenases, S-enantiomer relative to R-enantiomer", "result": 100}, {"measurement": "IC50", "setting": "[6]", "result": "< 0.01", "unit": "µM"}, {"measurement": "IC50", "setting": "[1]", "result": "> 100", "unit": "µM"}, {"measurement": "EC50", "setting": "[7]", "result": "> 10", "unit": "µM"}, {"measurement": "efficacy against Rac1", "setting": "[9]", "result": "< 50", "unit": "%"}, {"measurement": "inhibition of Rac1", "setting": "[10]; at 50 μM", "result": "non-inhibitory"}, {"measurement": "inhibition of Cdc42", "setting": "[2]; at 10 μM", "result": "non-inhibitory"}, {"measurement": "IC50", "setting": "[13]", "result": 0.085, "unit": "µM"}]}]}
